Data from US6566331B1, “Treatment of collagen related diseases” (Alphamed Pharmaceutical Corp, priority 1999, dated 2003).

Legend:
Assay type in all cases: in vivo, human
[1] = tested on: patient with rheumatoid arthritis; assay: DMSO solution administered to arthritic knee of a patient with rheumatoid arthritis; conditions: 5 percent solution in DMSO, topical on arthritic knee; after one week of treatment
Procedure: A 5 percent solution of alpha 1-antitrypsin was prepared with DMSO. A patient with rheumatoid arthritis administered the composition to an arthritic knee.

[2] = tested on: patient having scleroderma of the finger; assay: salve used daily on a patient having scleroderma of the finger
Procedure: A salve comprising 1% alpha 1-antitrypsin was prepared with Aquaphor® and 1% water. The salve was used daily on a patient having scleroderma of the finger. The finger was bent and constricted. The skin around the finger was hardened. After a daily application for one month the skin was softer, the finger was more flexible and the bending was less severe.

[3] = tested on: women with interstitial cystitis; assay: 19 patient study of women with interstitial cystitis, intravesical instillation
Procedure: A 19 patient study of women with interstitial cystitis was conducted for four weeks. Three of the patients were diagnosed as being urinary incontinent. The diagnosis of IC was considered as being mild to severe. Powdered alpha 1-antitrypsin (40 mg) was dissolved in 40 ml of saline solution. The solutions were instilled into the bladder for 20 minutes weekly for four weeks. Cystoscopy was carried out during and after filling the bladder for one minute at a pressure of 80 cm of water under spinal and general anesthesia. Bladder biopsies were carried out during cystoscopy. 24-hour collection for measurement of creatine, methylhistamine and tryptase were taken.
In lieu of the recombinant or natural alpha 1-antitrypsin, the conjugate with PEG may be used.

[4] = salve, 1% alpha 1-antitrypsin with Aquaphor and 1% water, daily application for one month
[5] = 40 mg in 40 ml saline instilled into the bladder for 20 minutes weekly for four weeks, weekly studies

With alpha 1-antitrypsin the knee flexibility [1] was “greater flexibility”, the knee pain [1] was “free of pain” and the knee swelling [1] was “substantial reduction in swelling”. The “bending of the finger” value [2, 4] was “less severe”, the “flexibility of the finger” value [2, 4] was “more flexible” and the “skin around the finger” value [2, 4] was “softer”. The “finger position after the treatment was stopped” value ([2]; within six months after stopping the 1% salve) was “returned to the bent position”, the “creatine, 24-hour collection” value [3, 5] was “decrease” and the “methylhistamine, 24-hour collection” value [3, 5] was “decrease”. For the same substance, the “tryptase, 24-hour collection” value [3, 5] was “decrease”, the lesions by cystoscopy ([3]; after two weeks of weekly instillation) was “substantial decrease in lesions” and the “continence of the incontinent patients” value ([3]; after two weeks of weekly instillation, three urinary incontinent patients) was “continent”.
